According to article PMC8973350, “4-Anilinoquinazoline-based benzenesulfonamides as nanomolar inhibitors of carbonic anhydrase isoforms I, II, IX, and XII: design, synthesis, in-vitro, and in-silico biological studies” (Journal of Enzyme Inhibition and Medicinal Chemistry, 2022):

Key:
hCA IX = hCA IX (Homo sapiens, UniProt Q16790); assay: stopped flow CO2 hydrase assay, hCA IX; type: biochemical; conditions: errors ±5–10% of the stated values
Method: (§1) The activity of the CA-catalyzed CO2 hydration reaction was evaluated employing an applied photophysics stopped-flow instrument. […] A minimum of six traces of the starting 5–10% of the reaction were analysed to measure the initial velocity for each inhibitor. In a similar manner, the uncatalyzed rates were evaluated and subtracted from the overall calculated rates. Stock inhibitor solutions (10 mM) were prepared in distilled–deionized water, and dilutions up to 0.01 nM were prepared with distilled–deionized water after that. Preincubation of the inhibitor enzyme solutions at room temperature to enable the formation of the E-I complex was carried out for 15 min before starting the experiment. The inhibition constants were determined employing PRISM 3, while the kinetic parameters for the uninhibited enzymes were calculated using Lineweaver-Burk plots that comprise the mean of at least three separate measurements with errors ranging to ±5–10% of the stated values[37]^,[38].
(§2) This panel comprised the two ubiquitously expressed cytosolic hCA I and II isoforms, along with the two tumour-related transmembrane hCA IX and XII isoforms.

hCA II = hCA II (Homo sapiens, UniProt P00918); assay: stopped flow CO2 hydrase assay, hCA II; type: biochemical; conditions: for folds of potency compared to AAZ against isoform hCA II: relative to AAZ (12.1 nM); for Ki: stopped flow CO2 hydrase assay, errors ±5–10% of the stated values; for inhibitory activity against hCA II (in words): compared to their para-sulphonamide analogues
Method: as §1, §2

hCA XII = hCA XII (Homo sapiens, UniProt O43570); assay: stopped flow CO2 hydrase assay, hCA XII; type: biochemical; conditions: errors ±5–10% of the stated values
Chain of hCA XII (O43570 25-354): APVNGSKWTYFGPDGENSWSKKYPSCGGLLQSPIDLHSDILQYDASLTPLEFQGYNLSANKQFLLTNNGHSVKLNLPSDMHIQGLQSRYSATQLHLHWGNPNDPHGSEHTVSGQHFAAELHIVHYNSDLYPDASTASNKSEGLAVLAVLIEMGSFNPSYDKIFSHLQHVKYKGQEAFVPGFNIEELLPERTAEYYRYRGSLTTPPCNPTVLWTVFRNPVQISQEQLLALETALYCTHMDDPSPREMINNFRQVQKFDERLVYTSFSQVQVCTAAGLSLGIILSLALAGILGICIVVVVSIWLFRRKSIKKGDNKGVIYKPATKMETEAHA
Method: as §1, §2

hCA I = hCA I (Homo sapiens, UniProt P00915); assay: stopped flow CO2 hydrase assay, hCA I; type: biochemical; conditions: for folds higher potency against hCA I when compared to the standard (AAZ, V): relative to AAZ; for Ki: stopped flow CO2 hydrase assay, errors ±5–10% of the stated values
Chain of hCA I (P00915 whole entry): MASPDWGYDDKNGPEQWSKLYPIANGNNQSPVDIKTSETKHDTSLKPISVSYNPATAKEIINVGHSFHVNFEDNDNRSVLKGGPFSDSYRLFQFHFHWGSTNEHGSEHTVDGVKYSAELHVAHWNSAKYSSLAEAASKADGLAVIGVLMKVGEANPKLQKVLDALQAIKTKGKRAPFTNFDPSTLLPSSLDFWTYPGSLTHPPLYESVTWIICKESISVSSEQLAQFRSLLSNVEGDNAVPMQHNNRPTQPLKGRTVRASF
Method: as §1, §2

Row | Compound | Ki (hCA IX) [nM] | folds of potency compared to AAZ against isoform hCA II (hCA II) [folds] | Ki (hCA II) [nM] | Ki (hCA XII) [nM] | folds higher potency against hCA I when compared to the standard (AAZ, V) (hCA I) [folds] | Ki (hCA I) [nM] | inhibitory activity against hCA II (in words) (hCA II) | inhibitory activity against hCA I (in words) (hCA I) | melting point [°C]
1 | NS(=O)(=O)c1ccc(Nc2ncnc3ccc(Br)cc23)cc1 [Compound 3a] | 174 | 1.4 | 8.7 | 46.5 | 2.8 | 89.4 |  |  | 
2 | NS(=O)(=O)c1cccc(Nc2ncnc3ccc(Br)cc23)c1 [Compound 3b] | 95.3 |  | 5760 | 39.4 |  | 7100 | loss of activity | lost all activity | 
3 | NS(=O)(=O)c1ccc(Nc2ncnc3ccc(-c4ccc(C=O)cc4)cc23)cc1 [Compound 4b, 4-((6–(4-formylphenyl)quinazolin-4-yl)amino)benzenesulfonamide] | 86.9 |  |  | 67.4 |  | 651 |  |  | 
4 | NS(=O)(=O)c1ccc(Nc2ncnc3ccc(-c4cccc([N+](=O)[O-])c4)cc23)cc1 [Compound 4d, 4-((6–(3-nitrophenyl)quinazolin-4-yl)amino)benzenesulfonamide] | 265 |  | 55.7 | 90.7 |  | 588 |  |  | 
5 | COc1ccc(-c2ccc3ncnc(Nc4ccc(S(N)(=O)=O)cc4)c3c2)cc1 [Compound 4e, 4-((6–(4-methoxyphenyl)quinazolin-4-yl)amino)benzenesulfonamide] | 86.9 | 2.6 | 4.6 | 77 | 2.7 | 91.2 |  |  | 
6 | NS(=O)(=O)c1ccc(Nc2ncnc3ccc(-c4ccsc4)cc23)cc1 [Compound 4f, 4-((6-(thiophen-3-yl)quinazolin-4-yl)amino)benzenesulfonamide] | 86.5 |  | 37.1 | 89.5 | 4 | 60.9 |  |  | 
7 | NS(=O)(=O)c1ccc(Nc2ncnc3ccc(-c4ccc(N5CCOCC5)cc4)cc23)cc1 [Compound 4h, 4-((6–(4-morpholinophenyl)quinazolin-4-yl)amino)benzenesulfonamide] | 337 |  | 112 | 49.8 |  | 548 |  |  | 
8 | NS(=O)(=O)c1ccc(Nc2ncnc3cc(-c4cccc(O)c4)ccc23)cc1 [Compound 4j, 4-((7–(3-hydroxyphenyl)quinazolin-4-yl)amino)benzenesulfonamide] | 245 |  | 66.3 | 66.7 |  | 361 |  |  | 

Further lines, results first:

Row | Ki (hCA IX) [nM] | folds of potency compared to AAZ against isoform hCA II (hCA II) [folds] | Ki (hCA II) [nM] | Ki (hCA XII) [nM] | folds higher potency against hCA I when compared to the standard (AAZ, V) (hCA I) [folds] | Ki (hCA I) [nM] | inhibitory activity against hCA II (in words) (hCA II) | inhibitory activity against hCA I (in words) (hCA I) | melting point [°C] | Compound
9 | 180 | 5 | 2.4 | 65.7 |  | 600 |  |  |  | NS(=O)(=O)c1ccc(Nc2ncnc3ccc(-c4ccccc4)cc23)cc1 [Compound 4a, 4-((6-phenylquinazolin-4-yl)amino)benzenesulfonamide]
10 | 560 |  | 47.1 | 93 |  | 931 |  |  |  | NS(=O)(=O)c1ccc(Nc2ncnc3ccc(-c4ccc(F)cc4)cc23)cc1 [Compound 4c, 4-((6–(4-fluorophenyl)quinazolin-4-yl)amino)benzenesulfonamide]
11 | 229 |  | 231 | 30.5 |  | 3130 |  |  |  | NS(=O)(=O)c1cccc(Nc2ncnc3ccc(-c4ccc(F)cc4)cc23)c1 [Compound 4g, 3-((6–(4-fluorophenyl)quinazolin-4-yl)amino)benzenesulfonamide]
12 | 488 |  | 2420 | 52.7 |  | 5580 |  |  |  | NS(=O)(=O)c1cccc(Nc2ncnc3ccc(-c4ccc(C=O)o4)cc23)c1 [Compound 4i, 3-((6–(5-formylfuran-2-yl)quinazolin-4-yl)amino)benzenesulfonamide]
13 | 90.3 |  | 2520 | 69.7 |  | 4680 | loss of activity |  |  | NS(=O)(=O)c1cccc(Nc2ncnc3cc(-c4cccc(O)c4)ccc23)c1 [Compound 4k, 3-((7–(3-hydroxyphenyl)quinazolin-4-yl)amino)benzenesulfonamide]
14 | 88.8 |  | 678 | 89.4 |  | 6570 | loss of activity |  | 327 to 329 | NS(=O)(=O)c1cccc(Nc2ncnc3ccc(-c4ccccc4)cc23)c1 [Compound 4l, 3-((6-phenylquinazolin-4-yl)amino)benzenesulfonamide]
